Assay results from patent US9441012B2, “Fluorinated epoxyketone-based compounds and uses thereof as proteasome inhibitors” (FLUORINOV PHARMA INC., priority 2012, dated 2016).

Tests used:
[1] = tested on: chymotrypsin-like (CT-L) proteasome activity, KMS-11; assay: Proteasome enzymatic activity (tumor cell lysates); type: biochemical, human; settings: KMS-11 cell lysate; mean ± standard deviation
Protocol: Cells were harvested by centrifugation at 1,200 rpm at room temperature. Cell pellets were washed with PBS and lysed with assay lysis buffer (50 mM HEPES (N-2-hydroxyethylpiperazine-N′-2-ethanesulfonic acid), pH 7.5; 150 mM NaCl; 1% Triton X-100; 2 mM ATP). Cell lysates were incubated on ice for 30 minutes, mixed by vortex every 5 minutes, and then centrifuged at 12,000 g for 10 minutes. The supernatant was transferred to a 96-well plate. For each assay, 10 μg of total protein were incubated for 1 hour at 37° C. with increasing concentrations (1 nM to 10 μM) of test compound diluted in assay buffer (50 mM Tris-HCl (tris(hydroxymethyl)aminomethane-HCl), pH 7.5; 150 mM NaCl). DMSO alone was used as a control in every assay plate. After incubation, a specific fluorogenic proteasome substrate was added to each assay reaction at a final concentration of 40 μM in a total volume of 100 μL. N-Succinyl-Leu-Leu-Val-Tyr-7-amino-4-methylcoumarin (Suc-Leu-Leu-Val-Tyr-AMC) was used for measuring chymotrypsin-like (CT-L) activity, t-butoxycarbonyl-Leu-Arg-Arg-7-amino-4-methylcoumarin (Boc-Leu-Arg-Arg-AMC) for trypsin-like (T-L) activity, and benzyloxycarbonyl-L-leucyl-L-leucyl-L-glutamyl-7-amino-4-methylcoumarin (Z-Leu-Leu-Glu-AMC) for caspase-like (C-L) activity. The excitation wavelength was set at 360 nm and the fluorescence emission wavelength of AMC was detected at 460 nm. The fluorescence of free AMC released during the enzymatic reaction was measured with a SpectraMax M5 fluorescent spectrophotometric plate reader (Molecular Devices, Sunnyvale, Calif.). AMC release rate was measured at 37° C. in a kinetic mode, recording every 5 minutes for 30 minutes. Experiments were performed in triplicate and repeated at least twice.
(§1) Table 9 summarizes data obtained for representative compounds of Formula I for cell viability and CT-L proteasome activity using OCI-AML-2 and KMS-11 cell lines.

[2] = tested on: high molecular weight ubiquitylated proteins in LP1 cells; assay: Immunoblotting assay of ubiquitylated proteins; type: cell-based; settings: Homo sapiens, LP-1, read-out: IC50 (increase of ubiquitylated proteins, immunoblot)
Protocol: Whole cell lysates were prepared from LP1 cells in RIPA lysis buffer. Anti-ubiquitin antibody was purchased from Cell Signaling Technology Inc, (Danvers, Mass.) and anti-tubulin antibody was purchased from Sigma-Aldrich (St. Louis, Mo.). Secondary horseradish peroxidase-conjugated goat anti-mouse or anti-rabbit IgG was purchased from Amersham Bioscience (Piscataway, N.J.). Detection was performed using an enhanced chemiluminescence kit from Pierce, (Rockford, Ill.).

T-47D = assay: NCI 60 human tumor cell line screen (SRB); type: cell-based; settings: T-47D (Breast Cancer); 48 h
CAKI-1 = assay: NCI 60 human tumor cell line screen (SRB); type: cell-based; settings: CAKI-1 (Renal Cancer); 48 h
RXF 393 = assay: NCI 60 human tumor cell line screen (SRB); type: cell-based; settings: RXF 393 (Renal Cancer); 48 h
HOP-62 = assay: NCI 60 human tumor cell line screen (SRB); type: cell-based; settings: HOP-62 (Non-Small Cell Lung Cancer); 48 h
OCI-AML-2 = assay: Cell viability assay (MTS); type: cell-based; settings: Homo sapiens, OCI-AML2, 72 hours, mean ± standard deviation
Protocol: (§2) Human multiple myeloma cell lines 8226, H929, JJN3, KMH11, KMS11, KMS18, LP1, MM1S, OPM2 and U266 were grown in Iscove modified Dulbecco's medium (IMDM). Human leukemia cell lines K562, OCI-AML2 and U937 were cultured in RPMI-1640 medium. Primary peripheral blood mononuclear cells were isolated from multiple myeloma patients by Ficoll density gradient centrifugation and bone marrow aspirates were obtained from multiple myeloma patients at the Princess Margaret Cancer Centre of the University Health Network (UHN; Toronto, ON, Canada). Primary cells were cultured in IMDM. The collection and use of human tissue for this study were approved by the UHN institutional ethics review board. All cell culture media were obtained from the Ontario Cancer Institute Tissue Culture Media Facility (Toronto, ON, Canada) and were supplemented with 10% fetal calf serum, […] (Hyclone, Logan, Utah). All cells were grown in a humidified incubator at 37° C. with 5% CO2.
(§3) Cellular viability was primarily assessed by 3-(4,5-dimethylthiazol-2-yl)-5-(3-carboxymethoxyphenyl)-2-(4-sulfophenyl)-2H-tetrazolium (MTS) assay according to the manufacturer's instructions (Promega; Madison, Wis.). Cells were first seeded at a density of 10,000 cells per well in tissue culture-treated 96-well plates. Two hours after seeding, cells were treated with compounds for 72 hours at concentrations as indicated. As a control, cells were treated with DMSO alone in every assay plate. Following treatment and the MTS assay, cell viability was independently confirmed by reading the optical density (O.D.) at 490 nm and by exclusion of trypan blue stain (Invitrogen; Burlington, ON, Canada). The viability of primary mononuclear cells was determined by staining with Annexin V.
as §1

KMS-11 = assay: Cell viability assay (MTS); type: cell-based; settings: Homo sapiens, 72 hours, mean ± standard deviation
Protocol: as §2, §3, §1

SN12C = assay: NCI 60 human tumor cell line screen (SRB); type: cell-based; settings: SN12C (Renal Cancer); 48 h
NCI-H522 = assay: NCI 60 human tumor cell line screen (SRB); type: cell-based; settings: NCI-H522 (Non-Small Cell Lung Cancer); 48 h

Compound | IC50 [1] | Log10GI50 (T-47D) | Log10TGI50 (T-47D) | Log10GI50 (CAKI-1) | Log10LC50 (CAKI-1) | Log10TGI50 (CAKI-1) | Log10GI50 (RXF 393) | Log10LC50 (RXF 393) | Log10TGI50 (RXF 393) | Log10GI50 (HOP-62) | Log10LC50 (HOP-62) | Log10TGI50 (HOP-62) | IC50 (OCI-AML-2) | IC50 (KMS-11) | Log10GI50 (SN12C) | Log10LC50 (SN12C) | Log10TGI50 (SN12C) | Log10GI50 (NCI-H522) | Log10LC50 (NCI-H522) | Log10TGI50 (NCI-H522) | other results
Cc1ncc(C(=O)N[C@@H](COC(F)F)C(=O)N[C@@H](COC(F)F)C(=O)N[C@@H](Cc2ccccc2)C(=O)[C@@]2(C)CO2)s1 [Example 1, 2-methyl-thiazole-5-carboxylic acid ((S)-1-{(S)-1-[(S)-1-benzyl-2-((R)-2-methyloxiranyl)-2-oxo-ethylcarbamoyl]-2-difluoromethoxyethylcarbamoyl}-2-difluoromethoxyethyl)-amide] | 29.6 ± 3.69 nM | −6.59 | >−4.00 | −6.40 | >−4.00 | −5.28 | −6.79 | −6.02 | −6.41 | −6.41 | >−4.00 | >−4.00 | 109 ± 25.3 nM | 30.9 ± 10.7 nM | −6.54 | −4.03 | −5.29 | −6.86 | −4.15 | −6.15 | IC50 [2]: < 50 nM
CC(C)C[C@H](NC(=O)[C@H](Cc1ccccc1)NC(=O)[C@H](COC(F)F)NC(=O)CN1CCOCC1)C(=O)[C@@]1(C)CO1 [Example 25, (2S)-2-[[(2S)-3-(difluoromethoxy)-2-[(2-morpholinoacetyl)amino]propanoyl]amino]-N-[(1S)-3-methyl-1-[(2R)-2-methyloxirane-2-carbonyl]butyl]-3-phenyl-propanamide] |  | −7.78 | −7.46 | −6.72 | >−4.00 | −6.09 | −7.64 | −6.70 | −7.25 | −7.75 | −7.09 | −7.42 | 55.6 ± 19.2 nM | 39.5 ± 7.45 nM | −7.39 | −5.15 | −6.67 | −7.67 | >−4.00 | −7.19 | IC50 [2]: < 50 nM
C[C@]1(C(=O)[C@H](Cc2ccccc2)NC(=O)[C@H](COC(F)F)NC(=O)[C@H](COC(F)F)NC(=O)CN2CCOCC2)CO1 [Example 26, (S)-N-{(S)-1-[(S)-1-Benzyl-2-((R)-2-methyl-oxiranyl)-2-oxo-ethylcarbamoyl]-2-difluoromethoxyethyl}-3-difluoromethoxy-2-(2-morpholin-4-yl-acetylamino)-propio-namide] | 174 ± 434 nM | −7.78 | −7.46 | −6.72 | >−4.00 | −6.09 | −7.64 | −6.70 | −7.25 | −7.75 | −7.09 | −7.42 | 223 ± 10.3 nM | 99.7 ± 17.7 nM | −7.39 | −5.15 | −6.67 | −7.67 | >−4.00 | −7.19 | 
C[C@]1(C(=O)[C@H](Cc2ccccc2)NC(=O)[C@H](Cc2ccccc2)NC(=O)[C@H](COC(F)F)NC(=O)CN2CCOCC2)CO1 [Example 29] | 135 ± 12.3 nM | −7.16 | −6.62 | −6.56 | >−4.00 | −5.94 | −7.20 | −6.31 | −6.70 | −7.31 | −4.32 | −6.53 | 75.9 ± 15 nM | 60.4 ± 11.2 nM | −6.92 | −4.39 | −6.38 | −6.90 | >−4.00 | −6.17 | 
